{"source": "patent US5834286A", "about": "“Recombinant cells that express phytate degrading enzymes in desired ratios” (Rohm Enzyme Finland Oy, priority 1995, dated 1998)", "molecules": {"B1": {"name": "Aspergillus niger var. awamori strain ALKO243 (ATCC#38854) pH2.5 acid phosphatase, purified native enzyme, SEQ. ID. NO. 4 (Aspergillus awamori) (protein)", "chain": "FSYGAAIPQSTQEKQFSQEFRDGYSILKHYGGNGPYSERVSYGIARDPPTSCEVDQVIMVKRHGERYPSPSAGKDIEEALAKVYSINTTEYKGDLAFLNDWTYYVPNECYYNAETTSGPYAGLLDAYNHGNDYKARYGHLWNGETVVPFFSSGYGRVIETARKFGEGFFGYNYSTNAALNIISESEVMGADSLTPTCDTDNDQTTCDNLTYQLPQFKVAAARLNSQNPGMNLTASDVYNLMVMASFELNARPFSNWINAFTQDEWVSFGYVEDLNYYYCAGPGDKNMAAVGAVYANASLTLLNQGPKEAGSLFFNFAHDTNITPILAALGVLIPNEDLPLDRVAFGNPYSIGNIVPMGGHLTIERLSCQATALSDEGTYVRLVLNEAVLPFNDCTSGPGYSCPLANYTSILNKNLPDYTTTCNVSASYPQYLSFWWNYNTTTELNYRSSPIACQEGDAMD", "notes": "Peptide #1110T is derived from a trypsin digestion of purified native pH2.5 acid phosphatase; endogenous in cells; host or cells: A. niger var. awamori strain ALKO243 (ATCC#38854), purified in house from the cell-free culture medium"}}, "key": {"[1]": {"molecular_target": "Aspergillus ficuum phytase (WO 91/05053) (Aspergillus niger, UniProt P34752)", "sequence (P34752 24-467)": "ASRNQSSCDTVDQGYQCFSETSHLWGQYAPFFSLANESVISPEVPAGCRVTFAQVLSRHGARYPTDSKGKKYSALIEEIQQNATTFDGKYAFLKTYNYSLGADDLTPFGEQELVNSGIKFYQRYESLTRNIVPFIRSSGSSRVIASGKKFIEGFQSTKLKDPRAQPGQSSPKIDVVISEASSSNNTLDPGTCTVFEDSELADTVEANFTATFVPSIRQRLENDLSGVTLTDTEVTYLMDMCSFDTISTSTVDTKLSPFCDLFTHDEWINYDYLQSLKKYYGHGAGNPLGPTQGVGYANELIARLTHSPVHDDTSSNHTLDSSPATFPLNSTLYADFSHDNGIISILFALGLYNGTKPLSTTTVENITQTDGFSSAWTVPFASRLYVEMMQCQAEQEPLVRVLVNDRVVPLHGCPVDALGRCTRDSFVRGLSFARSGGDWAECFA", "details": "reported in WO 91/05053; substrate not given; cited from earlier work"}, "[2]": {"molecular_target": "T1, Aspergillus ficuum phytase, wild type (Ullah, 1988) (Aspergillus niger, UniProt P34752)", "T1 construct": "Ullah reportedly purified a phytase from wild-type A. ficuum; host or cells: wild-type A. ficuum (extracellular enzyme)", "T1 sequence (P34752 20-467)": "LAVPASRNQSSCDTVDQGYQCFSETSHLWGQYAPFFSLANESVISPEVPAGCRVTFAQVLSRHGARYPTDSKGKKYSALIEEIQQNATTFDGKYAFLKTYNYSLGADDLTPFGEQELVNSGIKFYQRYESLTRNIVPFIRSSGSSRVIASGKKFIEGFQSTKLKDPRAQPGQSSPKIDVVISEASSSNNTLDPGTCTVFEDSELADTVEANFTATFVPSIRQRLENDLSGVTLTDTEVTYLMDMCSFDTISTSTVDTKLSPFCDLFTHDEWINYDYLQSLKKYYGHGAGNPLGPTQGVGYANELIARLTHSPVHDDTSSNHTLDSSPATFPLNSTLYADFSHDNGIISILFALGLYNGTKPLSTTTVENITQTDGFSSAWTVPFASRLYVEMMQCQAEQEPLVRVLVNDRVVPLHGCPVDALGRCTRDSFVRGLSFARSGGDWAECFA", "details": "reported by Ullah 1988; substrate not given; cited from earlier work"}, "[3]": {"molecular_target": "T2, Aspergillus niger var. awamori strain ALKO243 (ATCC#38854) pH2.5 acid phosphatase, purified native enzyme, SEQ. ID. NO. 4 (Aspergillus awamori, UniProt P34755)", "T2 construct": "Peptide #1110T is derived from a trypsin digestion of purified native pH2.5 acid phosphatase; endogenous in cells; host or cells: A. niger var. awamori strain ALKO243 (ATCC#38854), purified in house from the cell-free culture medium", "T2 sequence (P34755 20-479)": "B1 chain", "test": "Apparent Km of purified pH2.5 acid phosphatase (phosphate release, molybdate detection)", "type": "biochemical", "details": "37° C., read-out: apparent Km for sodium phytate", "experimental": "(§1) Both assays measure the amount of inorganic phosphate that is released by enzyme action as colorimetrically quantifying using reduction of a phosphomolybdate complex. One phytase unit (PU) is the amount of enzyme which liberates, under the conditions described below, 1 nmol of inorganic phosphate from Na-phytate in one minute at 37° C. One pH2.5 acid phosphatase unit (HFU) is the amount of enzyme which liberates, under the conditions indicated below, 1 nmol of inorganic phosphate from P-nitrophenyl phosphate in one minute.\n(§2) pH2.5 acid phosphatase activity was determined in a similar fashion: namely, 0.1 ml of diluted enzyme (diluted in 0.2M Glycine-HCl buffer, pH2.5) was added to 1.9 ml of substrate (30 mM p-nitrophenyl phosphate [Boehringer Mannheim] dissolved in 0.2M Glycine --HCl buffer) pH2.5. After a fifteen-minute incubation at 37° C., the reaction was terminated by addition of an equal volume of 15% TCA (as above). The released orthophosphate was measured using Reagent C (as described above), and the activity determined by a comparison to known diluted phosphate standards (as above) and by using the calculations described above."}, "[4]": {"substrate": "O=[N+]([O-])c1ccc(OP(=O)(O)O)cc1", "test": "purified protein, by the assay type", "details": "other: 37° C., pH2.5, pH 2.5"}, "[5]": {"substrate": "O=P(O)(O)O[C@H]1[C@H](OP(=O)(O)O)[C@@H](OP(=O)(O)O)[C@H](OP(=O)(O)O)[C@@H](OP(=O)(O)O)[C@H]1OP(=O)(O)O", "test": "Apparent Km of purified pH2.5 acid phosphatase (phosphate release, molybdate detection)", "type": "biochemical, Aspergillus niger var. awamori", "details": "other: 37° C., pH 2.5", "experimental": "as §1, §2"}}, "note": "Read-outs that look alike come from different tables or passages of the source."}
{"molecule": "O=P(O)(O)O[C@H]1[C@H](OP(=O)(O)O)[C@@H](OP(=O)(O)O)[C@H](OP(=O)(O)O)[C@@H](OP(=O)(O)O)[C@H]1OP(=O)(O)O", "note": "[phytate, myo-inositol-hexaphosphate]", "values": [{"measurement": "Km", "setting": "[1]", "result": "~250", "unit": "µM"}, {"measurement": "Km", "setting": "[2]", "result": "~40", "unit": "µM"}]}
{"molecule": "O=P(O)(O)O[C@H]1[C@H](OP(=O)(O)O)[C@@H](OP(=O)(O)O)[C@H](OP(=O)(O)O)[C@@H](OP(=O)(O)O)[C@H]1OP(=O)(O)O", "note": "[sodium phytate]", "values": [{"measurement": "Km", "setting": "[3]; listed as Na-phytate", "result": "~700", "unit": "µM"}, {"measurement": "Km", "setting": "[3]", "result": "~700", "unit": "µM"}]}
{"molecule": "B1", "values": [{"measurement": "Km", "setting": "[4]", "result": 4, "unit": "mM"}, {"measurement": "Km", "setting": "[5]", "result": 0.7, "unit": "mM"}]}
